From patent US20110224208A1, “NOVEL INHIBITORS OF FLAVIVIRUS REPLICATION” (KATHOLIEKE UNIVERSITEIT LEUVEN, K.U. LEUVEN R&D, priority 2008, published 2011)
Converted amounts (≈) assume the structure as drawn.

Key:
[1] = Proliferation of exponentially growing Huh-5-2 cells (MTS method); conditions: human, CC50, concentration required to inhibit the proliferation of exponentially growing Huh-5-2 cells by 50%; Table 2
Procedure, shortened: (§1)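 Huh-5-2 cells carrying the luciferase HCV replicon, seeded 24 h, then exposed to serial compound dilutions without G418 for 72 h at 37° C, 5% CO2. Replication read as luciferase luminescence, expressed as percentage of untreated cultures; culture density measured in parallel by MTS.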

[2] = system: HCV replicon I389luc-ubi-neo/NS3-3'/5.1; assay: Anti-HCV replicon assay (luciferase activity) in Huh-5-2 cells; assay type: cell-based, Hepatitis C virus; conditions: Hepatitis C virus, Huh-5-2, 72 h, concentration required to inhibit luciferase activity in the replicon system by 50%
Procedure, shortened: as §1

SMILES | CC50 at 72 h [1] [µg/mL] | IC50 [2] [µg/mL]
COCCN1C(=O)c2ccccc2C(C(=O)Nc2ccccc2)C1c1cccs1 (centres unmarked) [C18, 2-(2-Methoxyethyl)-1-oxo-N-phenyl-3-(thiophen-2-yl)-1,2,3,4-tetrahydroisoquinoline-4-carboxamide] | 78.2 (≈ 192 µM) | 2.65 (≈ 6.52 µM)
COc1cccc(NC(=O)C2c3ccccc3C(=O)N(C3CCCCC3)C2c2cccs2)c1 (centres unmarked) [C25, 2-Cyclohexyl-N-(3-methoxyphenyl)-1-oxo-3-(thiophen-2-yl)-1,2,3,4-tetrahydroisoquinoline-4-carboxamide] | 5.28 (≈ 11.5 µM) | 0.98 (≈ 2.13 µM)
COCCN1C(=O)c2ccccc2C(C(=O)Nc2ccc(F)cc2)C1c1cccs1 (centres unmarked) [C95, N-(4-fluorophenyl)-2-(2-methoxyethyl)-1-oxo-3-(thiophen-2-yl)-1,2,3,4-tetrahydroisoquinoline-4-carboxamide] | 76.3 (≈ 180 µM) | 2.21 (≈ 5.21 µM)
COc1cccc(NC(=O)C2c3ccccc3C(=O)N(CCCN3CCOCC3)C2c2cccs2)c1 (centres unmarked) [C64, N-(3-methoxyphenyl)-2-(3-morpholinopropyl)-1-oxo-3-(thiophen-2-yl)-1,2,3,4-tetrahydroisoquinoline-4-carboxamide] | 47.8 (≈ 94.5 µM) | 23.9 (≈ 47.2 µM)
COCCN1C(=O)c2ccccc2C(C(=O)Nc2cccc(CO)c2)C1c1cccs1 (centres unmarked) [C166, N-(3-(hydroxymethyl)phenyl)-2-(2-methoxyethyl)-1-oxo-3-(thiophen-2-yl)-1,2,3,4-tetrahydroisoquinoline-4-carboxamide] | 64.3 (≈ 147 µM) | 0.38 (≈ 0.87 µM)
COCCN1C(=O)c2ccccc2C(C(=O)Nc2ccn(C)n2)C1c1cccs1 (centres unmarked) [C180, 2-(2-methoxyethyl)-N-(1-methyl-1H-pyrazol-3-yl)-1-oxo-3-(thiophen-2-yl)-1,2,3,4-tetrahydroisoquinoline-4-carboxamide] | 80.8 (≈ 197 µM) | 34.8 (≈ 84.8 µM)
COCCN1C(=O)c2ccccc2C(C(=O)Nc2ccc3c(c2)CC(=O)N3C)C1c1cccs1 (centres unmarked) [C206, 2-(2-methoxyethyl)-N-(1-methyl-2-oxoindolin-5-yl)-1-oxo-3-(thiophen-2-yl)-1,2,3,4-tetrahydroisoquinoline-4-carboxamide] | 52.3 (≈ 110 µM) | 3.72 (≈ 7.82 µM)
COCCN1C(=O)c2ccccc2C(C(=O)Nc2nc(C(C)(C)C)cs2)C1c1cccs1 (centres unmarked) [C177, N-(4-tert-butylthiazol-2-yl)-2-(2-methoxyethyl)-1-oxo-3-(thiophen-2-yl)-1,2,3,4-tetrahydroisoquinoline-4-carboxamide] | 3.16 (≈ 6.73 µM) | 0.5 (≈ 1.06 µM)
COCCN1C(=O)c2ccccc2C(C(=O)NCCc2cn(C)c3ccccc23)C1c1cccs1 (centres unmarked) [C44, 2-(2-Methoxyethyl)-N-(2-(1-methyl-1H-indol-3-yl)ethyl)-1-oxo-3-(thiophen-2-yl)-1,2,3,4-tetrahydroisoquinoline-4-carboxamide] | 28.4 (≈ 58.2 µM) | 4.17 (≈ 8.55 µM)
COCCN1C(=O)c2ccccc2C(C(=O)Nc2ccc(C#N)c(C(F)(F)F)c2)C1c1cccs1 (centres unmarked) [C221, N-(4-cyano-3-(trifluoromethyl)phenyl)-2-(2-methoxyethyl)-1-oxo-3-(thiophen-2-yl)-1,2,3,4-tetrahydroisoquinoline-4-carboxamide] | 3.52 (≈ 7.05 µM) | 0.36 (≈ 0.721 µM)
COCCN1C(=O)c2ccccc2C(C(=O)Nc2ccc(OC3CCOCC3)cc2)C1c1cccs1 (centres unmarked) [C218, 2-(2-methoxyethyl)-1-oxo-N-(4-(tetrahydro-2H-pyran-4-yloxy)phenyl)-3-(thiophen-2-yl)-1,2,3,4-tetrahydroisoquinoline-4-carboxamide] | 83.8 (≈ 165 µM) | 0.1 (≈ 0.197 µM)
CCc1nnc(NC(=O)C2c3ccccc3C(=O)N(CCOC)C2c2cccs2)o1 (centres unmarked) [C125, N-(5-ethyl-1,3,4-oxadiazol-2-yl)-2-(2-methoxyethyl)-1-oxo-3-(thiophen-2-yl)-1,2,3,4-tetrahydroisoquinoline-4-carboxamide] | 53.6 (≈ 126 µM) | 7.3 (≈ 17.1 µM)
COCCN1C(=O)c2ccccc2C(C(=O)Nc2ccc(C)cc2)C1c1cccs1 (centres unmarked) [C86, 2-(2-methoxyethyl)-1-oxo-3-(thiophen-2-yl)-N-p-tolyl-1,2,3,4-tetrahydroisoquinoline-4-carboxamide] | 75 (≈ 178 µM) | 0.25 (≈ 0.594 µM)
COCCN1C(=O)c2ccccc2C(C(=O)Nc2cc(OC)cc(OC)c2)C1c1cccs1 (centres unmarked) [C130, N-(3,5-dimethoxyphenyl)-2-(2-methoxyethyl)-1-oxo-3-(thiophen-2-yl)-1,2,3,4-tetrahydroisoquinoline-4-carboxamide] | 91.8 (≈ 197 µM) | 0.8 (≈ 1.71 µM)
COCCN1C(=O)c2ccccc2C(C(=O)Nc2nc3ccc(F)cc3s2)C1c1cccs1 (centres unmarked) [C199, N-(6-fluorobenzo[d]thiazol-2-yl)-2-(2-methoxyethyl)-1-oxo-3-(thiophen-2-yl)-1,2,3,4-tetrahydroisoquinoline-4-carboxamide] | 5.97 (≈ 12.4 µM) | 0.12 (≈ 0.249 µM)
COCCN1C(=O)c2ccccc2C(C(=O)Nc2ccc(CN3CCCCC3)cc2)C1c1cccs1 (centres unmarked) [C216, 2-(2-methoxyethyl)-1-oxo-N-(4-(piperidin-1-ylmethyl)phenyl)-3-(thiophen-2-yl)-1,2,3,4-tetrahydroisoquinoline-4-carboxamide] | 10.9 (≈ 21.7 µM) | 2.57 (≈ 5.1 µM)

SMILES | CC50 at 72 h [1] [µg/mL] | IC50 [2] [µg/mL]
COc1cccc(NC(=O)C2c3ccccc3C(=O)N(Cc3ccccc3)C2c2cccs2)c1 (centres unmarked) [C37, 2-Benzyl-N-(3-methoxyphenyl)-1-oxo-3-(thiophen-2-yl)-1,2,3,4-tetrahydroisoquinoline-4-carboxamide] | 92.7 (≈ 198 µM) | 1.5 (≈ 3.2 µM)
COCCN1C(=O)c2cc(OC)ccc2C(C(=O)Nc2cccc(OC)c2)C1c1cccs1 (centres unmarked) [C50, 7-Methoxy-2-(2-methoxyethyl)-N-(3-methoxyphenyl)-1-oxo-3-(thiophen-2-yl)-1,2,3,4-tetrahydroisoquinoline-4-carboxamide] | 76.4 (≈ 164 µM) | 0.7 (≈ 1.5 µM)
COCCN1C(=O)c2ccccc2C(C(=O)Nc2ccc(-c3ccn(C)n3)cc2)C1c1cccs1 (centres unmarked) [C203, 2-(2-methoxyethyl)-N-(4-(1-methyl-1H-pyrazol-3-yl)phenyl)-1-oxo-3-(thiophen-2-yl)-1,2,3,4-tetrahydroisoquinoline-4-carboxamide] | 9.4 (≈ 19.3 µM) | 0.019 (≈ 0.039 µM)
COCCN1C(=O)c2ccccc2C(C(=O)Nc2ccc(-c3cccnc3)cc2)C1c1cccs1 (centres unmarked) [C173, 2-(2-methoxyethyl)-1-oxo-N-(4-(pyridin-3-yl)phenyl)-3-(thiophen-2-yl)-1,2,3,4-tetrahydroisoquinoline-4-carboxamide] | 9.59 (≈ 19.8 µM) | 0.09 (≈ 0.186 µM)
COCCN1C(=O)c2ccccc2C(C(=O)Nc2ccc(C(=O)N(C)C)cc2)C1c1cccs1 (centres unmarked) [C139, N-(4-(dimethylcarbamoyl)phenyl)-2-(2-methoxyethyl)-1-oxo-3-(thiophen-2-yl)-1,2,3,4-tetrahydroisoquinoline-4-carboxamide] | 75.3 (≈ 158 µM) | 2.74 (≈ 5.74 µM)
COCCN1C(=O)c2ccccc2C(C(=O)Nc2cccc(OC)c2)C1CSC (centres unmarked) [C82, 2-(2-methoxyethyl)-N-(3-methoxyphenyl)-3-(methylthiomethyl)-1-oxo-1,2,3,4-tetrahydroisoquinoline-4-carboxamide] | 72 (≈ 174 µM) | 12 (≈ 28.9 µM)
COCCN1C(=O)c2ccccc2C(C(=O)Nc2ccc(F)c(F)c2)C1c1cccs1 (centres unmarked) [C88, N-(3,4-difluorophenyl)-2-(2-methoxyethyl)-1-oxo-3-(thiophen-2-yl)-1,2,3,4-tetrahydroisoquinoline-4-carboxamide] | 60 (≈ 136 µM) | 2.7 (≈ 6.1 µM)
COCCN1C(=O)c2ccccc2C(C(=O)Nc2cccc(OC)c2)C1c1cccc(F)c1 (centres unmarked) [C8, 3-(3-Fluorophenyl)-2-(2-methoxyethyl)-N-(3-methoxyphenyl)-1-oxo-1,2,3,4-tetrahydroisoquinoline-4-carboxamide] | 54.5 (≈ 122 µM) | 21.8 (≈ 48.6 µM)
COCCN1C(=O)c2ccccc2C(C(=O)Nc2ccc(Cn3cncn3)cc2)C1c1cccs1 (centres unmarked) [C217, N-(4-((1H-1,2,4-triazol-1-yl)methyl)phenyl)-2-(2-methoxyethyl)-1-oxo-3-(thiophen-2-yl)-1,2,3,4-tetrahydroisoquinoline-4-carboxamide] | 83.7 (≈ 172 µM) | 0.76 (≈ 1.56 µM)
C#CC1C(C(=O)Nc2cccc(OC)c2)c2ccccc2C(=O)N1CCOC (centres unmarked) [C83, 3-ethynyl-2-(2-methoxyethyl)-N-(3-methoxyphenyl)-1-oxo-1,2,3,4-tetrahydroisoquinoline-4-carboxamide] | 70 (≈ 185 µM) | 0.4 (≈ 1.06 µM)
COCCN1C(=O)c2ccccc2C(C(=O)Nc2cccc(OC)c2)C1C(C)(C)C (centres unmarked) [C57, 3-tert-Butyl-2-(2-methoxyethyl)-N-(3-methoxyphenyl)-1-oxo-1,2,3,4-tetrahydroisoquinoline-4-carboxamide] | 76.2 (≈ 186 µM) | 39.5 (≈ 96.1 µM)
COCCN1C(=O)c2ccccc2C(C(=O)Nc2cccc(OC)c2)C1C#Cc1ccccc1 (centres unmarked) [C119, 2-(2-methoxyethyl)-N-(3-methoxyphenyl)-1-oxo-3-(phenylethynyl)-1,2,3,4-tetrahydroisoquinoline-4-carboxamide] | 94 (≈ 207 µM) | 4.63 (≈ 10.2 µM)
COCCN1C(=O)c2ccccc2C(C(=O)Nc2cccc(C(F)(F)F)c2)C1c1cccs1 (centres unmarked) [C110, 2-(2-methoxyethyl)-1-oxo-3-(thiophen-2-yl)-N-(3-(trifluoromethyl)phenyl)-1,2,3,4-tetrahydroisoquinoline-4 carboxamide] | 79.3 (≈ 167 µM) | 1.45 (≈ 3.06 µM)
COc1cccc(NC(=O)C2c3ccccc3C(=O)N(CC(F)(F)F)C2c2cccs2)c1 (centres unmarked) [C62, N-(3-methoxyphenyl)-1-oxo-3-(thiophen-2-yl)-2-(2,2,2-trifluoroethyl)-1,2,3,4-tetrahydroisoquinoline-4-carboxamide] | 16.4 (≈ 35.5 µM) | 8.81 (≈ 19.1 µM)
COCCN1C(=O)c2ccccc2C(C(=O)Nc2ccc(-c3nnc(C)o3)cc2)C1c1cccs1 (centres unmarked) [C205, 2-(2-methoxyethyl)-N-(4-(5-methyl-1,3,4-oxadiazol-2-yl)phenyl)-1-oxo-3-(thiophen-2-yl)-1,2,3,4-tetrahydroisoquinoline-4-carboxamide] | 38.8 (≈ 79.5 µM) | 0.034 (≈ 0.0696 µM)
